Source: publication PMC5007466, “VCP recruitment to mitochondria causes mitophagy impairment and neurodegeneration in models of Huntington's disease” (Nature Communications, 2016)

System: YAC128 mice
Experiment: Stereology of NeuN-positive striatal neurons
Format: in vivo, mouse
Details: YAC128, 12 months of age, 3 mg/kg/day, n=6
Method: YAC128 mice (Tg) and their age-matched wt littermates were implanted with an osmotic pump containing TAT control peptide or HV-3 peptide (3 mg/kg/day, each) starting from the age of 3 months. The pump was replaced once every month. By the age of 12 months, the treatments were terminated and the mouse samples were harvested for analysis.
To measure the number of NeuN-positive cells, a series of 25 μm thick coronal sections spaced 200 μm apart spanning the striatum were stained with NeuN antibody (Millipore, 1:500) and visualized by diaminobenzidine. For neuropathological analyses, brain sections were analysed stereologically. Briefly, unbiased stereological counts of NeuN-positive neurons within the striatum were performed using unbiased stereological principles and analysed with StereoInvestigator software (Microbrightfield, Williston, VT). Optical fractionator sampling was carried out on a Leica DM5000B microscope (Leica Microsystems, Bannockburn, IL) equipped with a motorized stage and Lucivid attachment ( × 40 objective). The following parameters were used in the final study: grid size, (X) 500 μm, (Y) 500 μm; Counting frame, (X) 68.2 μm, (Y) 75 μm, depth was 20 μm. […] The total volume of stratial tissue measured in each brain is calculated by StereoInvestigator and the neuronal density is presented as NeuN positive cell number per mm^3.

SMILES: CSCC[C@H](NC(=O)[C@@H](NC(=O)[C@H](CC(C)C)NC(=O)[C@@H](NC(=O)[C@H](Cc1c[nH]cn1)NC(=O)CCCCCNC(=O)[C@H](CCCNC(=N)N)NC(=O)[C@H](CCCNC(=N)N)NC(=O)[C@H](CCCNC(=N)N)NC(=O)[C@H](CCC(N)=O)NC(=O)[C@H](CCCNC(=N)N)NC(=O)[C@H](CCCNC(=N)N)NC(=O)[C@H](CCCCN)NC(=O)[C@H](CCCCN)NC(=O)[C@H](CCCNC(=N)N)NC(=O)CNC(=O)[C@@H](N)Cc1ccc(O)cc1)C(C)C)C(C)C)C(=O)N[C@@H](CS)C(=O)N[C@@H](C)C(=O)N[C@H](C(N)=O)[C@@H](C)O [HV-3]
- NeuN-positive neurons in dorsolateral striatum: significantly increased the number of neurons positive for anti-NeuN immunostaining
